One assay relates to HUAEC. The experiment in a line: qPCR of Prox1 in lentivirus-transduced HUAEC. In kind it is cell-based, Human. The settings on record: HUAEC transduced with lentivirus. An excerpt:
Raf1 lentiviruses were produced in 293A cells (Invitrogen) by co-transfection of pLVX-HA-Raf1 WT or S259A with lentiviral packaging plasmids pMD2.G, pRSV-REV and pMDLg/pRRE (Addgene) as described by Dull, J Virol 72:8463-8471 (1998). Control lentivirus was also made using an empty vector pLVX-IRES-puro. Ad-MEK1 CA was from Cell Biolabs, Inc. Ad-Mek1 DN was purchased from Vector Biolabs. All adenoviruses were produced, amplified and purified as described by Dull 1998; Luo, et al. Nat Protoc 2:1236-1247 (2007). For lentiviral infection, cells were incubated with lentivirus in growth medium in the presence of 8 μg/ml polybrene (Sigma) for 8 hours. For adenoviral infection, cells were incubated with adenovirus (MOI=100) in growth medium for overnight.
(§1) Total RNA was purified using a QiagenRNeasyPlus Mini kit. cDNA was synthesized using a Bio-Rad iScript cDNA Synthesisis kit. qPCR was performed using a Bio-Rad iQ SYBR Green Supermix on a Bio-Rad CFX96 Real Time System. For immunoblot, cells were lysed in RIPA buffer supplemented with protease and phosphatase inhibitors. Cell lysates were then separated with 4-20% gradient gel (Bio-Rad) and subjected to immunoblot.

Assay [1] deals with HUVEC. In words: Proliferation assay (cell counting). The settings on record: overexpression in HUVEC. Format: cell-based, Human.
The test system of assay [2] is HUVEC. In words: qPCR of lymphatic fate genes in virus-transduced HUVEC. In kind it is cell-based, Human.
For assay [3], the system named is HUVEC. The experiment in a line: Western blot of DLL4, cleaved NOTCH1 and ERK in RAF1 virus infected HUVEC. In kind it is cell-based, Human. (Immunoblotting shows a protein as a band on a membrane.)
For assay [4], the system named is HUVEC. In words: Migration (wound healing) assay. Format: cell-based, Human. As to conditions: under stimulation of serum, 18 hours.
Assay [5] relates to HDLEC. The experiment in a line: qPCR of lymphatic fate genes in adenovirus-transduced HDLEC. In kind it is cell-based, Human. (In general: In qPCR the cycle at which signal appears reflects the starting amount.)
Assay [6] relates to VE-cadherin-tTA/RAF1S259A double transgenic embryos. The experiment in a line: Endothelial-specific RAF1S259A transgenic mice (Noonan syndrome mouse model). Format: in vivo. As to conditions: primary EC purified from E12.5 S259A embryos versus control littermates. An excerpt:
Human wild type Raf1 and RAF1S259A plasmids were gifts of Dr. Guri Tzivion (Wayne State University). To generate RAF1S259A transgenic mice, hRAF1S259A was cloned to NotI+PstI sites of pBI-G Tet-off vector (Clontech). TRE-RAF1S259A transgenic mouse line was then generated at the Yale Animal Genomics Services center. VE-cadherin-tT A mice (Sun, et al. Proc Natl Acad Sci USA 102:128-133 (2005)) were from W. Sessa lab (Yale). Time-mating was setup by intercross of male TRE-RAF1 S259A mice with VE-cadherin-tTA female mice. For paraffin and frozen sections, embryos were fixed in 4% paraformaldehyde for overnight at 4° C.
Primary mouse endothelial cells were isolated from E12.5 embryos using a protocol similar to that described by Ren, et al. J Clin Invest 120:1217-1228 (2010). Briefly, E12.5 embryos were harvested, minced finely with scissors, and then digested in 25 ml collagenase 0.2% (w/v) at 37° C. for 20 minutes. The crude cell preparation was pelleted and resuspended in DPBS. The cell suspension was incubated with CD31-coated beads (Invitrogen) at room temperature for 10 minutes with rotation. Using a magnetic separator, the bead-bound cells were recovered, washed with DMEM-20% FBS. The cells were then used for gene expression analysis by qPCR.

A further assay deals with ERK. The experiment in a line: ERK activation by western blot in HUVEC infected with RAF1 WT or RAF1 S259A lentivirus. In kind it is cell-based, Human.
For assay [7], the system named is HUVEC. The experiment in a line: Matrigel tube formation assay. In kind it is cell-based, Human. The settings on record: overexpression in HUVEC, 8 hours.
For assay [8], the system named is HUVEC. The experiment in a line: qPCR of artery-vein specification genes in lentivirus infected HUVEC. In kind it is cell-based, Human.
Assay [9] relates to HUVEC. In words: Apoptosis assay (serum withdrawal, Annexin V/PI flow cytometry). Format: cell-based, Human. The settings on record: serum-starved 48 hours, vehicle, versus empty control lentivirus.
For another assay, the system named is 14-3-3. The experiment in a line: Immunoprecipitation of HA-RAF1 from HUVEC, western blot for 14-3-3. Format: binding, Human. As to conditions: anti-HA immunoprecipitation.
Another assay relates to Akt1-/- cells. In words: Dll4 expression in AKT+/+ and AKT-/- cells expressing RAF1 constructs. Format: cell-based. An excerpt:
FIGS. 3A to 3M show expression of Dll4 (FIG. 3A), Hey 1 (FIG. 3B), Hey 2 (FIG. 3C), Hes 1 (FIG. 3D), Coup-TFII (FIG. 3E), EphB4 (FIG. 3F), Dll1 (FIG. 3G), Ephrin B2 (FIG. 3G), Notch 1 (FIG. 3I), Notch 4 (FIG. 3J), Jagged 1 (FIG. 3K), FLK1 (FIG. 3L), Nrp1 (3N) and Flt4 (3N).

In assay [10] the test system is HUVEC. The experiment in a line: qPCR of lymphatic fate genes in RAF1-transduced HUVEC treated with pathway inhibitors for 24 hours. In kind it is cell-based, Human. The settings on record: HUVEC with GFP or RAF1S259A adenovirus, Rapamycin 10 nM, AKT inhibitor VIII 1 μM. The protocol:
ERK activation was quantified by densitometry and is represented as ratio of pERK1/2 versus total ERK1/2. Immunofluorescence staining showing higher P-ERK1/2 in β-GAL positive endothelial cells of E12.5 S259A embryos. jv, jugular vein. FIGS. 10B-10E are graphs showing HUVEC transduced with control, wild type Raf1 or RAF1S259A lentiviruses treated with DMSO, MEK inhibitor U0126 (10 μM) or PI3K inhibitor LY294002 (10 μM) for 24 hours. Sox18 (FIG. 10B), Prox1 (Figure), Vegfr3 (FIG. 10D) and Lyve1 (10E) expression was assessed by qPCR. FIGS. 10E-10H are graphs showing HUVEC transduced with GFP or RAF1S259A adenoviruses treated with DMSO, Rapamycin (10 nM), AKT inhibitor VIII (1 μM) and LY294002 (10 μM) for 24 hours. Sox18 (FIG. 10F), Prox1 (FIG. 10G) and Coup-TFII (FIG. 10H) expression assessed by qPCR. Data are Mean±SEM (n=3).*, p<0.05; **, p<0.01.
as §1

The test system of assay [11] is HDLEC. The experiment in a line: Sox18 expression in serum starved HDLEC stimulated with VEGF-C. The settings on record: 100 ng/ml VEGF-C. Format: cell-based, Human. The procedure: FIGS. 11A-11J are graphs showing excessive ERK activation is the basis of lymphatic abnormalities in Noonan syndrome. HUVEC (FIGS. 11A-11D) and HDLEC (FIGS. 11E-11H) were transduced with adenovirus expressing lacZ, cytosolic localized constitutive active ERK (ME) or nuclear localized constitutive active ERK (LA). Sox18 (FIGS. 11A and 11E), Prox1 (FIGS. 11B and 11F), Vegfr3 (FIGS. 11C and 11G) and Lyve1 (FIGS. 11D and 11H) expression were assessed by qPCR. Data are Mean±SEM (n=3). FIG. 11I is a graph of serum starved HDLEC stimulated with 100 ng/ml VEGF-C for an indicated time in the presence of […] (10 μM) or an equal volume of DMSO. Sox18 expression was assessed by qPCR. Data are Mean±SEM (n=3). FIG. 11J is a graph of lymphatic vessel diameter calculated by whole mount staining of skin vasculature of E14.5 embryos treated with MEK inhibitor U0126 or DMSO. Statistical significance was determined by two-tailed t-test (Control, n=5 embryos; S259A, n=3 embryos).
as §1

Where [12] appears, read: HUVEC transduced with the named construct.
[13] abbreviates: adenovirus MOI 0, 5, 10, 50 for 48 hours, HUVEC.
[14] abbreviates: HDLEC transduced with the named construct.
The mark [15] stands for this setting: serum-starved HUVEC, 50 ng/ml VEGF-A164.
Setting [16] is: lentivirus infected HUVEC, qPCR.

As for “RAF1 S259A: RAF1 Ser259 to Ala259 mutant, not inhibited by AKT; expressed from lentivirus, adenovirus or endothelial transgene”, in the assay on HUAEC, the Prox1 expression entry is “upregulated”. Besides, the cell proliferation entry with HUVEC [1] was “significantly inhibited”. Moreover, the Sox7 expression result in the assay on HUVEC [2] (HUVEC transduced with lentivirus) is reported as “unchanged”. In addition, in the assay on HUVEC [2] (setting [12]), the Lyve1 expression result was “Increased expression”, the Prox1 expression entry is reported as “upregulated”, the Sox17 expression result is reported as “significant increase” and the Sox18 expression entry was “significant increase”. Also, the Vegfr3 expression result in the assay with HUVEC [2] (setting [12]) is on record as “Increased expression”. In addition, the Coup-TFII levels entry in the assay with HUVEC [2] (in vitro or in vivo) is given as “no significant effect”. Further, the “NOTCH1 activation (cleaved NOTCH1)” value in the assay on HUVEC [3] (HUVEC) was “activated”. Besides, in the assay on HUVEC [3] (setting [13]), the DLL4 protein entry is “dose-dependent and parallel increase”; the ERK activity entry is “dose-dependent and parallel increase”. Besides, the Dll4 protein entry in the assay on HUVEC [3] (lentivirus overexpression in HUVEC) was “dramatically increased”. Besides, the cell migration result in the assay with HUVEC [4] was “significantly promoted”. Besides, the Prox1 expression entry in the assay on HDLEC [5] (HDLEC transduced with adenovirus) is listed as “not”. In the assay on HDLEC [5] (setting [14]), the Lyve1 expression entry is “Increased expression”, the Sox17 expression entry is given as “significant increase”, the Sox18 expression result is on record as “significant increase” and the Vegfr3 expression result is recorded as “Increased expression”. In addition, the Sox18 levels result in assay [6] is recorded as “significantly higher”. In the assay with ERK (overexpression in HUVEC by lentivirus), the ERK activation entry was “constitutive activation”. For the same molecule, in the assay on ERK (setting [15]), the Akt signaling result is given as “remains normal” and the Erk activation entry is “constitutive activation”. The “tube formation (tube length)” value in the assay on HUVEC [7] was “significantly improved”. Besides, in the assay on HUVEC [8] (Raf1SA introduction), the Egr1 expression entry is given as “activated expression”, the Ets1 expression entry was “activated expression”, the “Sox7 expression” value is “not changed” and the Sox18 expression result was “activated expression”. Moreover, in the assay on HUVEC [8] (setting [16]), the “Coup-TFII (venous marker) gene expression” value is “no changes”, the Dll1 gene expression entry is listed as “not affected”, the Dll4 gene expression result is “dramatically induced” and the “EphB4 (venous fate gene) expression” value was “no changes”. In the assay with HUVEC [8] (setting [16]), the “Ephrin B2 gene expression” value was “dramatically induced”, the Flk1 gene expression result is “induced”, the Flt4 gene expression entry was “induced” and the Hes1 gene expression result was “dramatically induced”. In the assay on HUVEC [8] (setting [16]), the Hey1 gene expression entry is on record as “dramatically induced”, the Hey2 gene expression result is given as “dramatically induced”, the Jagged1 gene expression result was “dramatically induced” and the Notch4 gene expression entry is reported as “dramatically induced”. Besides, the “neuropilin1 (Nrp1) gene expression” value with HUVEC [8] (setting [16]) is recorded as “dramatically induced”. For the same molecule, in the assay on HUVEC [8] (lentivirus infected HUVEC, qPCR, listed as RAF1S259A), the “Coup-TFII (venous marker) gene expression” value was “slightly inhibiting”. Besides, in the assay on HUVEC [9], the cell survival entry was “significantly higher survival”. The “co-immunoprecipitation with 14-3-3” value in the assay with 14-3-3 is given as “did not”. Also, in the assay on Akt1-/- cells, the DLL4 expression result was “strongly induced”.

Take `O=c1[nH]c2ccccc2n1C1CCN(Cc2ccc(-c3nc4cc5[nH]cnc5cc4nc3-c3ccccc3)cc2)CC1` [AKT inhibitor VIII]: in the assay on HUVEC [10], the Coup-TFII expression result is reported as “significantly inhibited”, the Prox1 expression entry is “significantly inhibited” and the Sox18 expression result is “slightly inducing”.

B1: VEGF-C: growth factor from R&D, the key VEGF in lymphatic EC (protein, UniProt P49767 112-227, looked up)
Vascular endothelial growth …: AHYNTEILKSIDNEWRKTQCMPREVCIDVGKEFGVATNTFFKPPCVSVYRCGGCCNSEGLQCMNTSTSYLSKTLFEITVPLSQGPKPVTISFANHTSCRCMSKLDVYRQVHSIIRR
For B1, the Sox18 expression entry in the assay on HDLEC [11] is reported as “induced”.

Source of the values: patent publication US20140120106A1, “Stimulation of Arterial Collateral Growth and Lymphogenesis” (YALE UNIVERSITY, priority 2011, published 2014).
